Test results as given in ChEMBL document CHEMBL3132854, “Synthesis and anticancer activity evaluation of resveratrolchalcone conjugates” (2014).

Columns and labels:
Assay type in all cases: functional
[1] = Cytotoxicity against human UO31 cells by sulforhodamine B assay
CCRF-CEM = experiment: Cytotoxicity against human CCRF-CEM cells by sulforhodamine B assay
SF-539 = experiment: Cytotoxicity against human SF539 cells by sulforhodamine B assay
SF-295 = experiment: Cytotoxicity against human SF295 cells by sulforhodamine B assay
NCI-H460 = experiment: Cytotoxicity against human NCI-H460 cells by sulforhodamine B assay
MDA-MB-231 = experiment: Cytotoxicity against human MDA-MB-231 cells by sulforhodamine B assay
NCI-H322M = experiment: Cytotoxicity against human NCI-H322M cells by sulforhodamine B assay
[2] = Cytotoxicity against human OVCAR5 cells by sulforhodamine B assay
BT-549 = experiment: Cytotoxicity against human BT549 cells by sulforhodamine B assay
T47D = experiment: Cytotoxicity against human T47D cells by sulforhodamine B assay
[3] = read-out: LC50 (the source's name)

## COc1ccc(C(=O)/C=C/c2ccc(/C=C/c3cc(OC)c(OC)c(OC)c3)cc2)cc1
[1]; UO-31
  GI50: 4.64 µM
  TGI: > 100 µM
[1]; UO-31, read-out: LC50 (the source's name)
  CC50: > 100 µM
CCRF-CEM
  GI50: 4.15 µM
  TGI: > 100 µM
CCRF-CEM; [3]
  CC50: > 100 µM
SF-539
  GI50: 12.2 µM
  TGI: 78.3 µM
SF-539; [3]
  CC50: > 100 µM
SF-295
  GI50: 9.01 µM
  TGI: > 100 µM
SF-295; [3]
  CC50: > 100 µM
NCI-H460
  GI50: 8.65 µM
  TGI: > 100 µM
NCI-H460; [3]
  CC50: > 100 µM
MDA-MB-231
  GI50: 10.2 µM
  TGI: > 100 µM
MDA-MB-231; [3]
  CC50: > 100 µM
NCI-H322M
  GI50: 1.98 µM
  TGI: > 100 µM
NCI-H322M; [3]
  CC50: > 100 µM
[2]; OVCAR-5
  GI50: 34.1 µM
  TGI: > 100 µM
[2]; OVCAR-5, read-out: LC50 (the source's name)
  CC50: > 100 µM
BT-549
  GI50: 3.36 µM
  TGI: 16.8 µM
BT-549; [3]
  CC50: > 100 µM
T47D
  GI50: 6.19 µM
  TGI: > 100 µM
T47D; [3]
  CC50: > 100 µM
